Assay results published in PubChem BioAssay (NCI).
Several values for one entry are separate records, joined by “and”; a condition that tells them apart may be missing. Equal values may be shown once.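 Cultured in 96-well plates, cells were exposed to test compound for 48 hours across five concentrations. GI50 marks 50% less growth. TGI: concentration producing complete growth inhibition.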 Where a SMILES comes first, the peptide text is derived from it. [ ]: non-standard residue; d: D form. The star is where a group is joined. ξ: configuration not given here. ξF = NC(Cc1ccccc1)C(=O)O; Cbz = O=C(OCc1ccccc1)*; Aib = CC(C)(N)C(=O)O

Assays:
Assay in all cases: inhibition of tumour cell growth, NCI panel, 48 h
[1] = system: IGROV1 ovarian
[2] = system: U251 CNS
[3] = system: SK-OV-3 ovarian
[4] = system: CCRF-CEM leukemia
[5] = system: RXF 393 renal
[6] = system: NCI-H226 lung
[7] = system: A498 renal
[8] = system: HT29 colon
[9] = system: T-47D breast
[10] = system: PC-3 prostate

SMILES | TGI [1] [µM] | TGI [2] | TGI [3] [µM] | TGI [4] [µM] | TGI [5] [µM] | TGI [6] [µM] | TGI [7] | TGI [8] [µM] | TGI [9] [µM] | TGI [10] | GI50 [1] [nM] | GI50 [9] [nM] | GI50 [2] [nM] | GI50 [3] [nM] | GI50 [10] [nM] | GI50 [7] [nM] | GI50 [8] [nM]
O=C(c1ccc(Cl)cc1)c1ccc(OCC(=O)N2CCN(c3ccccc3)CC2)cc1 | > 100 | > 100 µM | > 100 | > 100 | > 100 | > 100 | 78.9 µM | > 100 |  |  |  |  |  |  |  |  | 
Cc1cn(C2CC(n3cc(Cn4cc(F)c(=O)[nH]c4=O)nn3)C(CO)O2)c(=O)[nH]c1=O (stereo not drawn) | > 100 | > 100 µM | > 100 | > 100 | > 100 | > 100 | > 100 µM |  | > 100 | > 100 µM |  |  |  |  |  |  | 
Cc1ccc2c(=O)cc(-c3csc4ccccc34)[nH]c2n1 | 16.7 | 0.0783 µM | > 32 | 1.59 |  | 0.0863 | 1.1 µM | 0.0481 | > 100 | 0.0198 µM |  |  |  |  |  |  | 
CC1(C)OC2OC(COC(=O)C=[N+]=[N-])C3OC(C)(C)OC3C2O1 (stereo not drawn) | > 100 | > 100 µM | > 100 | > 100 | > 100 | > 100 | > 100 µM | > 100 |  | > 100 µM |  |  |  |  |  |  | 
C=CC(=O)N1C/C(=C\c2ccc(N(C)C)cc2)C(=O)/C(=C/c2ccc(N(C)C)cc2)C1 | > 100 | > 100 µM |  |  | > 100 | > 100 | > 100 µM | > 100 | > 100 | > 100 µM |  |  |  |  |  |  | 
CCCCOC(=O)CNC(=O)OCCCCC#CC#CCCCCOC(=O)NCC(=O)OCCCC | > 100 | > 100 µM | > 100 | > 100 |  | > 100 | > 100 µM | > 100 |  |  |  |  |  |  |  |  | 
CC(C)CCCC(C)[C@H]1CCC2[C@@H]3CCC4Cc5nc6c(nc5C[C@]4(C)C3CC[C@@]21C)CC1CC[C@@H]2C(C[C@@H](O)[C@@]3(C)C2C[C@@H]2OC4(CCC(C)CO4)C(C)[C@@H]23)[C@@]1(C)C6 (stereo partly drawn) | > 100 | > 100 µM | > 100 | > 100 | > 100 | > 100 |  | > 100 | > 100 | > 100 µM |  |  |  |  |  |  | 
CC(=O)Oc1ccc(/C=C/C(=O)O[C@@H](C)[C@H](C)OC(=O)/C=C/c2ccc(OC(C)=O)c(OC(C)=O)c2)cc1OC(C)=O | > 100 | > 100 µM | 77.2 | 42.3 | 44.6 |  | 93.9 µM |  | 61.2 | > 100 µM |  |  |  |  |  |  | 
C=CCC(C)C12CCNC(Cc3ccc(O)cc31)C2C (stereo not drawn) | > 100 | > 100 µM | > 100 | > 100 | > 100 | > 100 | > 100 µM | > 100 | > 100 |  |  |  |  |  |  |  | 
COc1ccc(CCn2cnc3ccccc32)cc1 | > 100 | > 100 µM | > 100 | > 100 | > 100 | > 100 | > 100 µM | > 100 |  | > 100 µM |  |  |  |  |  |  | 
CC(=O)OC[C@H]1O[C@@H](O[C@H]2[C@H](OC(C)=O)C=CO[C@@H]2COC(C)=O)C(OC(C)=O)[C@H]2OC(C)(C)O[C@H]21 (stereo partly drawn) | > 100 | > 100 µM | > 100 | > 100 | > 100 | > 100 |  | > 100 | > 100 | > 100 µM |  |  |  |  |  |  | 
N#CC1=C2Sc3ccccc3N2[C@H](c2ccccc2)[C@H]2COC(=O)[C@@H]12 |  | > 100 µM | > 100 | 30.7 | > 100 | > 100 | > 100 µM |  | > 100 | > 100 µM |  |  |  |  |  |  | 
Cc1ccc(C)n2c1nc1ccc3ccccc3c12 | > 100 | > 100 µM | > 100 | > 100 | > 100 | > 100 |  | > 100 | > 100 | > 100 µM |  |  |  |  |  |  | 
CC(C)C[C@H](NC(=O)[C@H](Cc1cccc2ccccc12)NC(=O)N1CCOCC1)B(O)O | 0.0485 | 0.0245 µM and 0.0429 µM | > 100 |  | 0.00195 | 0.00049 | 0.0288 µM and < 0.0143 µM | 0.00448 | 0.00275 | 0.0191 µM and < 0.0235 µM | 4.08 | 0.817 | 1.96 | 226 | 4.73 | 0.871 | 1.31
COC(=O)C12Oc3ccc(-c4ccc5c(c4O)C(=O)C4=CCC(C)C(O)C4(C(=O)OC)O5)c(O)c3C(=O)C1=CCC(C)C2O (stereo not drawn) | 3.81 | 3.06 µM | 6.71 | 9.26 | 3.03 | 3.77 | 3.54 µM | 4.61 |  |  |  |  |  |  |  |  | 
COc1ccc(N[C@H](CS(=O)c2ccc(C)cc2)c2ccc(F)cc2)cc1 (stereo partly drawn) | 47.4 | > 100 µM | > 100 | > 100 | > 100 |  |  | > 100 | > 100 | > 100 µM |  |  |  |  |  |  | 
CCCCCc1cc(OC(=O)c2c(O)cc(OC)cc2CCCCC)cc(O)c1C(=O)O | 32.5 | 29.1 µM | 31.5 | 47.8 | 30.8 |  | 35.6 µM | 29.9 |  |  |  |  |  |  |  |  | 
Cc1ccc([N+](=O)[O-])cc1S(=O)(=O)Nc1ccc(C2=NN(c3ccc([N+](=O)[O-])cc3[N+](=O)[O-])C(c3ccccc3)C2)cc1 (stereo not drawn) | 36 | 25.3 µM | 65.8 | > 100 | 33.4 | 35.6 |  | 37.6 | > 100 | 28.8 µM |  |  |  |  |  |  | 
c1ccc2c(-c3cnc(-c4c[nH]c5ccccc45)cn3)c[nH]c2c1 | > 100 | > 100 µM | > 100 |  | > 100 |  | > 100 µM |  | > 100 | > 100 µM |  |  |  |  |  |  | 
CC(=O)c1ccc(N=Nc2ccc3nonc3c2N)cc1 | > 100 | > 100 µM | > 100 | > 100 | > 100 | > 100 |  | > 100 | > 100 | > 100 µM |  |  |  |  |  |  | 
CC(C)(NC(=O)OCc1ccccc1)C(=O)NC(Cc1ccccc1)C(=O)O (stereo not drawn) (Cbz-[Aib]-[ξF]-OH) | > 100 | > 100 µM | > 100 | > 100 |  | > 100 | > 100 µM | > 100 | > 100 | > 100 µM |  |  |  |  |  |  | 
COC(=O)CCCc1ccc2c(c1)CC1(C2)Cc2cc3c(cc2C1)CCCC3 | > 100 | > 100 µM | > 100 |  | 94.2 | > 100 | > 100 µM | > 100 | > 100 | > 100 µM |  |  |  |  |  |  | 
